From patent US20100035853A1, “METHOD FOR PREVENTING OR TREATING CISPLATIN-INDUCED NEPHROTOXICITY” (HYOGO COLLEGE OF MEDICINE, priority 2008, published 2010)

Tests used:
aldosterone receptor [1] = molecular target: T1, aldosterone receptor (Mus musculus, UniProt Q8VII8)
T1 sequence (Q8VII8 1-978): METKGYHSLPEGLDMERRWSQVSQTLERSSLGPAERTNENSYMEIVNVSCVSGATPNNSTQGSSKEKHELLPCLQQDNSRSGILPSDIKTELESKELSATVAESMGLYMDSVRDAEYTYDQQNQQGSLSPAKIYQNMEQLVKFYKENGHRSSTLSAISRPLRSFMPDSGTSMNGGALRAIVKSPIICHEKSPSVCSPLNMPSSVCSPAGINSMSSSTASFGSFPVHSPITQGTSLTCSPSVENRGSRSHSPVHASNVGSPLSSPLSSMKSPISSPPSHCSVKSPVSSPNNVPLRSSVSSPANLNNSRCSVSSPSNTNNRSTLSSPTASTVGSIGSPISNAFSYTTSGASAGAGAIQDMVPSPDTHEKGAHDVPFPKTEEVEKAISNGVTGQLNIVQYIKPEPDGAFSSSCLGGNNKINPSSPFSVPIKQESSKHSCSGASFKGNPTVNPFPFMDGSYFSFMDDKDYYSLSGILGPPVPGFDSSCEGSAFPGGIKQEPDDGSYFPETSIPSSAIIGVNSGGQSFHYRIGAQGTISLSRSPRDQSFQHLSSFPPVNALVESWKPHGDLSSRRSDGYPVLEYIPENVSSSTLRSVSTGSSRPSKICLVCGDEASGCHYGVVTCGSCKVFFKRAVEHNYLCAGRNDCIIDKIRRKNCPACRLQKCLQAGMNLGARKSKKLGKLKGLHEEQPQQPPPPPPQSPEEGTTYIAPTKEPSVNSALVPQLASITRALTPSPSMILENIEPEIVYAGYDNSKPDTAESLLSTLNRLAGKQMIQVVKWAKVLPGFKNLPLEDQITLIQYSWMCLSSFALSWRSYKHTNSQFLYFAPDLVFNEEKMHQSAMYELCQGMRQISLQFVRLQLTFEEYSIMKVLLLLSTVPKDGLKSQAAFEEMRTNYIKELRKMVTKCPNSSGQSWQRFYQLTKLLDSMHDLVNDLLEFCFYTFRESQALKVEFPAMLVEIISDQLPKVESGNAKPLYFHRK
Protocol: (§1) Open and closed columns show vehicle- and Eplerenone-treated mice, respectively. […] NS; not significant.
(§2) Blood urea nitrogen (BUN) and creatinine were enzymatically measured by HITACHI 7180 auto-analyzer. Aldosterone level was measured by radioimmuno assay. All of these assays were performed by SRL, Inc (Tokyo, Japan).

aldosterone receptor [2] = molecular target: T1, aldosterone receptor; experiment: Effect of Eplerenone on Cisplatin-induced increase in plasma aldosterone in wild-type mice; assay type: in vivo; parameters: Wild-type male BALB/c mice (WT mice) aged 9-10 weeks-old were purchased; from tissue; host or cells: whole animal: wild-type male BALB/c mice dosed orally, with read-outs in plasma; settings: Eplerenone 20 mg/kg orally, observation for 3 days, significant at day 1 and later
Protocol: as §1, §2

[3] = Serum IL-18 and other cytokines after Cisplatin treatment (ELISA); assay type: in vivo, mouse; settings: wild-type BALB/c mice, Cisplatin 20 mg/kg i.p.
Protocol: Levels of serum IL-18 were measured using the specific ELISA kit.
IL-18 concentrations in serum were measured by ELISA purchased from Medical and Biological Laboratories (Tokyo, Japan) in accordance with the manufactures' instructions. Other cytokines such as TNF-α, IFN-γ, IL-1β, IL-10 and MIP-1α were measured respective ELISA kits purchased from R&D Systems Inc (USA).

[4] = Accumulation of Cisplatin in the kidney (platinum ion content of kidney homogenate); assay type: in vivo, mouse; settings: wild-type vs IL-18KO mice, Cisplatin 20 mg/kg i.p.
Protocol: Accumulations of Cisplatin in the kidney were measured as platinum ion content in the kidney homogenate. Open and closed columns show wild-type and IL-18KO mice, respectively.

[5] = Survival of wild-type and IL-18KO mice after Cisplatin; assay type: in vivo, mouse; settings: Cisplatin 20 mg/kg i.p.; for dead mice: day 2; for survival rate: day 3
Protocol: Open and closed symbols show wild-type and IL-18KO mice, respectively.
(§3) As a control, mice were treated with a similar volume of saline.

[6] = Induction of plasma aldosterone by recombinant IL-18 in wild-type mice; assay type: in vivo
Protocol: Wild-type mice were treated with various doses of IL-18 (0.2, 0.6 and 2 mg/mouse), then blood samples were collected at 5 hours after IL-18 treatment. […] NS; not significant.
as §2

[7] = Exogenous recombinant mouse IL-18 in Cisplatin-treated IL-18KO mice: plasma BUN and creatinine; assay type: in vivo; settings: IL-18KO mice supplemented with rmIL-18 (2 μg/body), Cisplatin 20 mg/kg i.p.
Protocol: Plasma levels of BUN and creatinine were measured as shown in Materials and Methods. Open, closed and grey-colored columns show wild-type, IL-18KO and IL-18-supplemented IL-18KO mice, respectively. […] NS; not significant.
as §3, §2

[8] = wild-type mice, Eplerenone 20 mg/kg orally 30 min pre, day 1, day 2, Cisplatin 20 mg/kg i.p.

With COC(=O)[C@@H]1CC2=CC(=O)CC[C@]2(C)[C@@]23O[C@@H]2C[C@@]2(C)[C@@H](CC[C@@]24CCC(=O)O4)[C@H]13 [Eplerenone] the “inhibition of increased creatinine level vs vehicle” value (aldosterone receptor [1]; day 1 and later after Cisplatin treatment) was “significant inhibition”, the “inhibition of increased BUN level vs vehicle” value (aldosterone receptor [1]; day 2 and 3 after Cisplatin treatment) was “Significant inhibition” and the “renal toxicity of Cisplatin (summary statement)” value (aldosterone receptor [1]; wild-type mice) was “strongly suppressed”. The “lethality of Cisplatin” value (aldosterone receptor [1]; wild-type mice treated with Eplerenone (data not shown)) was “almost completely suppressed”, the “elevation of plasma BUN” value (aldosterone receptor [1]; [8]) was “almost completely suppressed” and the “elevation of plasma creatinine” value (aldosterone receptor [1]; [8]) was “almost completely suppressed”. The “increase in plasma aldosterone level induced by Cisplatin” value (aldosterone receptor [2]) was “completely inhibited”.

With N.N.[Cl][Pt][Cl] [Cisplatin] the “levels of IL-18 in the circulation” value ([3]; around day 3) was “over 1000 pg/ml”, the “other cytokines (TNF-α, IFN-γ, IL-1β, IL-10, MIP-1α) in serum” value ([3]; when IL-18 was at maximal levels (data not shown)) was “undetectable” and the “quantity of platinum ion in the kidney” value ([4]; day 1) was “almost equivalent”. The “rate of excretion of platinum ion from the kidney” value ([4]; day 2 and 3) was “much rapid in IL-18KO mice than in wild-type mice”, the dead mice ([5]; IL-18KO mice) was “no mouse was dead” and the survival rate ([5]; IL-18KO mice) was 92.9%. For the same molecule, the dead mice ([5]; wild-type mice) was “six of fourteen” and the survival rate ([5]; wild-type mice) was 28.6%.

B1: rmIL-18: Recombinant mouse IL-18 donated by GlaxoSmithKline Pharmaceuticals (protein, UniProt P70380 36-192, looked up)
Interleukin-18: NFGRLHCTTAVIRNINDQVLFVDKRQPVFEDMTDIDQSASEPQTRLIIYMYKDSEVRGLAVTLSVKDSKMSTLSCKNKIISFEEMDPPENIDDIQSDLIFFQKRVPGHNKMEFESSLYEGHFLACQKEDDAFKLILKKKDENGDKSVMFTLTNLHQS
For B1, the “renal toxicity of exogenously given IL-18 alone” value ([6]; wild-type mice (data not shown)) was “did not cause any renal toxicity”, the “dose of IL-18 giving significant induction of plasma aldosterone” value ([6]; wild-type mice, 5 hours after IL-18 treatment) was “over 0.6 μg” and the “plasma levels of aldosterone” value ([6]; wild-type mice, various doses of IL-18, 5 hours after treatment) was “augmented the plasma levels of aldosterone in a dose-dependent manner”. For the same molecule, the “plasma levels of creatinine induced by Cisplatin” value ([7]; day 1 to 3) was “significantly increased” and the “plasma levels of BUN” value ([7]; day 3) was “increased to almost equivalent levels with wild-type mice”.
